Measurements as given in patent US10499642B2, “Isoxazoline-substituted benzamides and analogues as insecticides” (SYNGENTA PARTICIPATIONS AG, priority 2015, dated 2019).
Read-outs that look alike come from different tables or passages of the source.

Experiments:
Type in all cases: in vivo
[1] = system: Tetranychus urticae; experiment: Tetranychus urticae (two-spotted spider mite) bean leaf disc test; settings: foliar, 192 h
Description: Tetranychus urticae (Two-Spotted Spider Mite):
Bean leaf discs on agar in 24-well microtiter plates were sprayed with aqueous test solutions prepared from 10′000 ppm DMSO stock solutions. After drying the leaf discs were infested with a mite population of mixed ages. The samples were assessed for mortality on mixed population (mobile stages) 8 days after infestation.

[2] = system: Plutella xylostella; experiment: Plutella xylostella (diamond back moth) artificial diet test; settings: 120 h, read-out: effect in at least one of the two categories (mortality or growth inhibition)
Description: Plutella xylostella (Diamond Back Moth):
(§1) 24-well microtiter plates with artificial diet were treated with aqueous test solutions prepared from 10′000 ppm DMSO stock solutions by pipetting. After drying, the plates were infested with L2 larvae (10 to 15 per well). The samples were assessed for mortality and growth inhibition in comparison to untreated samples 5 days after infestation. The following compounds gave an effect of at least 80% in at least one of the two categories (mortality or growth inhibition) at an application rate of 200 ppm: […]

[3] = system: Thrips tabaci; experiment: Thrips tabaci (onion thrips) sunflower leaf disc test; settings: foliar, 144 h
Description: Thrips tabaci (Onion Thrips):
Sunflower leaf discs were placed on agar in 24-well microtiter plates and sprayed with aqueous test solutions prepared from 10′000 ppm DMSO stock solutions. After drying the leaf discs were infested with a thrips population of mixed ages. The samples were assessed for mortality 6 days after infestation.

[4] = system: Spodoptera littoralis; experiment: Spodoptera littoralis (Egyptian cotton leaf worm) cotton leaf disc test; settings: foliar, 72 h, read-out: control (at least one of mortality, anti-feedant effect, and growth inhibition)
Description: Spodoptera littoralis (Egyptian Cotton Leaf Worm)
Cotton leaf discs were placed on agar in 24-well microtiter plates and sprayed with aqueous test solutions prepared from 10′000 ppm DMSO stock solutions. After drying the leaf discs were infested with five L1 larvae. The samples were assessed for mortality, anti-feedant effect, and growth inhibition in comparison to untreated samples 3 days after infestation. Control of Spodoptera littoralis by a test sample is when at least one of mortality, anti-feedant effect, and growth inhibition is higher than the untreated sample.

[5] = system: Diabrotica Balteata; experiment: Diabrotica balteata (corn root worm) maize sprout test; settings: 96 h, read-out: effect in at least one of the two categories (mortality or growth inhibition)
Description: Diabrotica Balteata, (Corn Root Worm)
as §1, with “Maize sprouts, placed on an agar layer in 24-well” for “24-well”, “plates” for “plates with artificial diet”, “spraying.” for “pipetting.”, “(6” for “(10”, “10” for “15”, “4” for “5”

[6] = application rate 200 ppm, bean leaf discs, mixed population (mobile stages), 8 days after infestation, read-out: mortality
[7] = application rate 200 ppm, artificial diet, L2 larvae, 5 days after infestation
[8] = application rate 200 ppm, sunflower leaf discs, population of mixed ages, 6 days after infestation, read-out: mortality
[9] = application rate 200 ppm, cotton leaf discs, L1 larvae, 3 days after infestation
[10] = application rate 200 ppm, maize sprouts, L2 larvae, 4 days after infestation

Cc1cc(C2=NO[C@@](c3cc(Cl)c(F)c(Cl)c3)(C(F)(F)F)C2)ccc1C(=O)N[C@H]1CC(Br)=NO1 (single isomer, unassigned) [Compound A146]
≥ 80%: mortality at 200 ppm [1] | percent effect (mortality or growth inhibition) at 200 ppm [2] | mortality at 200 ppm [3] | percent control (mortality, anti-feedant effect or growth inhibition) at 200 ppm [4] | percent effect (mortality or growth inhibition) at 200 ppm [5]

COC1=NO[C@@H](NC(=O)c2ccc(C3=NO[C@@](c4cc(Cl)c(F)c(Cl)c4)(C(F)(F)F)C3)cc2C)C1 (single isomer, unassigned) [Compound A151]
≥ 80%: mortality at 200 ppm [1] | percent effect (mortality or growth inhibition) at 200 ppm [2] | mortality at 200 ppm [3] | percent control (mortality, anti-feedant effect or growth inhibition) at 200 ppm [4] | percent effect (mortality or growth inhibition) at 200 ppm [5]

COC1=NO[C@H](N(C(=O)OC(C)(C)C)C(=O)c2ccc(C3=NO[C@@](c4cc(Cl)c(Cl)c(Cl)c4)(C(F)(F)F)C3)cc2C)C1 (single isomer, unassigned) [Compound A152]
≥ 80%: mortality at 200 ppm [1] | percent effect (mortality or growth inhibition) at 200 ppm [2] | mortality at 200 ppm [3] | percent control (mortality, anti-feedant effect or growth inhibition) at 200 ppm [4] | percent effect (mortality or growth inhibition) at 200 ppm [5]

COC1=NO[C@@H](N(C(=O)OC(C)(C)C)C(=O)c2ccc(C3=NO[C@@](c4cc(Cl)c(Cl)c(Cl)c4)(C(F)(F)F)C3)cc2C)C1 (single isomer, unassigned) [Compound A153]
≥ 80%: mortality at 200 ppm [1] | percent effect (mortality or growth inhibition) at 200 ppm [2] | mortality at 200 ppm [3] | percent control (mortality, anti-feedant effect or growth inhibition) at 200 ppm [4] | percent effect (mortality or growth inhibition) at 200 ppm [5]

Cc1cc(C2=NO[C@@](c3cc(Cl)cc(Cl)c3)(C(F)(F)F)C2)ccc1C(=O)N[C@H]1CC(OCC(F)(F)F)=NO1 (single isomer, unassigned) [Compound A157]
≥ 80%: mortality at 200 ppm [1] | percent effect (mortality or growth inhibition) at 200 ppm [2] | mortality at 200 ppm [3] | percent control (mortality, anti-feedant effect or growth inhibition) at 200 ppm [4] | percent effect (mortality or growth inhibition) at 200 ppm [5]

CCOC1=NO[C@@H](NC(=O)c2ccc(C3=NO[C@@](c4cc(Cl)cc(Cl)c4)(C(F)(F)F)C3)cc2C)C1 (single isomer, unassigned) [Compound A159]
≥ 80%: mortality at 200 ppm [1] | percent effect (mortality or growth inhibition) at 200 ppm [2] | mortality at 200 ppm [3] | percent control (mortality, anti-feedant effect or growth inhibition) at 200 ppm [4] | percent effect (mortality or growth inhibition) at 200 ppm [5]

CCOC(=O)C1=NOC(N(C=O)C(=O)c2ccc(C3=NO[C@@](c4cc(Cl)c(F)c(Cl)c4)(C(F)(F)F)C3)cc2C)C1 (stereo partly drawn) [Compound A006, ethyl 5-[[4-[(5S)-5-(3,5-dichloro-4-fluoro-phenyl)-5-(trifluoromethyl)-4H-isoxazol-3-yl]-2-methyl-benzoyl]-formyl-amino]-4,5-dihydroisoxazole-3-carboxylate]
≥ 80%: percent effect (mortality or growth inhibition) at 200 ppm [2] | mortality at 200 ppm [3] | percent control (mortality, anti-feedant effect or growth inhibition) at 200 ppm [4] | percent effect (mortality or growth inhibition) at 200 ppm [5]

CCOC(=O)C1=NOC(NC(=O)c2ccc(C3=NO[C@@](c4cc(Cl)c(F)c(Cl)c4)(C(F)(F)F)C3)cc2C)C1 (stereo partly drawn) [Compound A007, ethyl 5-[[4-[(5S)-5-(3,5-dichloro-4-fluoro-phenyl)-5-(trifluoromethyl)-4H-isoxazol-3-yl]-2-methyl-benzoyl]amino]-4,5-dihydroisoxazole-3-carboxylate]
≥ 80%: mortality at 200 ppm [1] | percent effect (mortality or growth inhibition) at 200 ppm [2] | mortality at 200 ppm [3] | percent control (mortality, anti-feedant effect or growth inhibition) at 200 ppm [4] | percent effect (mortality or growth inhibition) at 200 ppm [5]

CSC1=NOC(NC(=O)c2ccc(C3=NO[C@@](c4cc(Cl)c(SC)c(Cl)c4)(C(F)(F)F)C3)cc2C)C1 (stereo partly drawn) [Compound A020, 4-[(5S)-5-(3,5-dichloro-4-methylsulfanyl-phenyl)-5-(trifluoromethyl)-4H-isoxazol-3-yl]-2-methyl-N-(3-methylsulfanyl-4,5-dihydroisoxazol-5-yl)benzamide]
≥ 80%: mortality at 200 ppm [1] | percent effect (mortality or growth inhibition) at 200 ppm [2] | mortality at 200 ppm [3] | percent control (mortality, anti-feedant effect or growth inhibition) at 200 ppm [4] | percent effect (mortality or growth inhibition) at 200 ppm [5]

CCS(=O)(=O)C1=NOC(NC(=O)c2ccc(C3=NO[C@@](c4cc(Cl)c(Cl)c(Cl)c4)(C(F)(F)F)C3)cc2C)C1 (some centres unmarked) [Compound A053]
≥ 80%: mortality at 200 ppm [1] | percent effect (mortality or growth inhibition) at 200 ppm [2] | mortality at 200 ppm [3] | percent control (mortality, anti-feedant effect or growth inhibition) at 200 ppm [4] | percent effect (mortality or growth inhibition) at 200 ppm [5]

Cc1cc(C2=NO[C@@](c3cc(Cl)c(F)c(Cl)c3)(C(F)(F)F)C2)ccc1C(=O)N(C(=O)OC(C)(C)C)C1CC(Cl)=NO1 (stereo partly drawn) [Compound A067, tert-butyl N-(3-chloro-4,5-dihydroisoxazol-5-yl)-N-[4-[(5S)-5-(3,5-dichloro-4-fluoro-phenyl)-5-(trifluoromethyl)-4H-isoxazol-3-yl]-2-methyl-benzoyl]carbamate]
≥ 80%: mortality at 200 ppm [1] | percent effect (mortality or growth inhibition) at 200 ppm [2] | mortality at 200 ppm [3] | percent control (mortality, anti-feedant effect or growth inhibition) at 200 ppm [4] | percent effect (mortality or growth inhibition) at 200 ppm [5]

Cc1cc(C2=NO[C@@](c3cc(Cl)c(F)c(Cl)c3)(C(F)(F)F)C2)ccc1C(=O)N(C(=O)OC(C)(C)C)C1CC(COC2CCCCO2)=NO1 (some centres unmarked) [Compound A068]
≥ 80%: mortality at 200 ppm [1, 6] | percent effect (mortality or growth inhibition) at 200 ppm [2, 7] | mortality at 200 ppm [3, 8] | percent control (mortality, anti-feedant effect or growth inhibition) at 200 ppm [4, 9] | percent effect (mortality or growth inhibition) at 200 ppm [5, 10]

COCC1=NOC(N(C(=O)OC(C)(C)C)C(=O)c2ccc(C3=NO[C@@](c4cc(Cl)c(F)c(Cl)c4)(C(F)(F)F)C3)cc2C)C1 (some centres unmarked) [Compound A088]
≥ 80%: mortality at 200 ppm [1] | percent effect (mortality or growth inhibition) at 200 ppm [2] | mortality at 200 ppm [3] | percent control (mortality, anti-feedant effect or growth inhibition) at 200 ppm [4] | percent effect (mortality or growth inhibition) at 200 ppm [5]

O=C(NC1CC(Br)=NO1)c1ccc(C2=NO[C@@](c3cc(Cl)cc(Cl)c3)(C(F)(F)F)C2)cc1Cl (some centres unmarked) [Compound A093]
≥ 80%: mortality at 200 ppm [1] | percent effect (mortality or growth inhibition) at 200 ppm [2] | mortality at 200 ppm [3] | percent control (mortality, anti-feedant effect or growth inhibition) at 200 ppm [4] | percent effect (mortality or growth inhibition) at 200 ppm [5]

Cc1cc(C2=NO[C@@](c3cc(Cl)c(F)c(Cl)c3)(C(F)(F)F)C2)ccc1C(=O)NC1CC(C(=O)O)=NO1 (some centres unmarked) [Compound A117]
≥ 80%: mortality at 200 ppm [1] | percent effect (mortality or growth inhibition) at 200 ppm [2] | mortality at 200 ppm [3] | percent control (mortality, anti-feedant effect or growth inhibition) at 200 ppm [4] | percent effect (mortality or growth inhibition) at 200 ppm [5]

Cc1cc(C2=NO[C@@](c3cc(Cl)c(F)c(Cl)c3)(C(F)(F)F)C2)ccc1C(=O)NC1CC(/C=N/O)=NO1 (some centres unmarked) [Compound A118]
≥ 80%: mortality at 200 ppm [1] | percent effect (mortality or growth inhibition) at 200 ppm [2] | mortality at 200 ppm [3] | percent control (mortality, anti-feedant effect or growth inhibition) at 200 ppm [4] | percent effect (mortality or growth inhibition) at 200 ppm [5]

CCOC1=NOC(N(C(=O)c2ccc(C3=NO[C@@](c4cc(Cl)c(F)c(Cl)c4)(C(F)(F)F)C3)cc2C)[C@H](C)c2ccc(OC)cc2)C1 (some centres unmarked) [Compound A131]
≥ 80%: mortality at 200 ppm [1, 6] | percent effect (mortality or growth inhibition) at 200 ppm [2, 7] | mortality at 200 ppm [3, 8] | percent control (mortality, anti-feedant effect or growth inhibition) at 200 ppm [4, 9] | percent effect (mortality or growth inhibition) at 200 ppm [5, 10]

Cc1cc(C2=NO[C@@](c3cc(Cl)c(Cl)c(Cl)c3)(C(F)(F)F)C2)ccc1C(=O)NC1CC(OS(C)(=O)=O)=NO1 (stereo partly drawn) [Compound A135, [5-[[2-methyl-4-[(5S)-5-(3,4,5-trichlorophenyl)-5-(trifluoromethyl)-4H-isoxazol-3-yl]benzoyl]amino]-4,5-dihydroisoxazol-3-yl] methanesulfonate]
≥ 80%: mortality at 200 ppm [1] | percent effect (mortality or growth inhibition) at 200 ppm [2] | mortality at 200 ppm [3] | percent control (mortality, anti-feedant effect or growth inhibition) at 200 ppm [4] | percent effect (mortality or growth inhibition) at 200 ppm [5]
